Reference: patent US20250147039A1, “Compounds for complexation of rare earth elements and/or s-, p-, d- block metals, their coordination compounds, peptide conjugates, method of their preparation and use thereof” (USTAV ORGANICKE CHEMIE A BIOCHEMIE AV CR V.V.I., priority 2021, published 2025)

Legend:
Type in all cases: physicochemical
[1] = Relaxivities of Gd^III chelates, inversion recovery pulse sequence on relaxometer (0.5 T) (Chart 15); conditions: 40.0° C., 1.0 mM in aq. MOPS/NaOH buffer, pH 7.0
[2] = Formation of 1,5-cz-[Ln(Lig)] from 1,5-cz-Lig (metal dependent direct complexation) (Chart 8); conditions: pH 7.0
[3] = Formation of 1,5-cz-[Ln(Lig)] from 1,5-cz-Lig (metal dependent direct complexation), RT and 80° C. (Chart 9); conditions: pH 7.0; for conversion to 1,5-cz-[Ln(Lig)] from 1,5-cz-Lig, Bi^III: ~4% DMSO

C#Cc1cccc(CN2CC[N@]3CCN(Cc4cc(-c5ccccc5)cc(CN=[N+]=[N-])n4)CC[N@@](CC2)CC(=O)[O][Gd][O]C(=O)C3)n1 [TD451]
relaxivity [1]: 2.39 mM⁻¹ s⁻¹

O=C(O)CN1CC[N@]2CCN(CC(=O)O)CC[N@@](CC1)Cc1cccc(n1)-c1cnnn1Cc1cc(-c3ccccc3)cc(n1)C2 [TD650]
conversion to 1,5-cz-[Ln(Lig)] from 1,5-cz-Lig, Ce^III ([2]; A: 1 hour at 80° C.): 0%
conversion to 1,5-cz-[Ln(Lig)] from 1,5-cz-Lig, Dy^III ([2]; A: 1 hour at 80° C.): 0%
conversion to 1,5-cz-[Ln(Lig)] from 1,5-cz-Lig, Er^III ([2]; A: 1 hour at 80° C.): 0%
conversion to 1,5-cz-[Ln(Lig)] from 1,5-cz-Lig, Eu^III ([2]; A: 1 hour at 80° C.): 0%
conversion to 1,5-cz-[Ln(Lig)] from 1,5-cz-Lig, Gd^III ([2]; A: 1 hour at 80° C.): 0%
conversion to 1,5-cz-[Ln(Lig)] from 1,5-cz-Lig, Ho^III ([2]; A: 1 hour at 80° C.): 0%
conversion to 1,5-cz-[Ln(Lig)] from 1,5-cz-Lig, La^III ([2]; A: 1 hour at 80° C.): 0%
conversion to 1,5-cz-[Ln(Lig)] from 1,5-cz-Lig, Lu^III ([2]; A: 1 hour at 80° C.): 0%
conversion to 1,5-cz-[Ln(Lig)] from 1,5-cz-Lig, Nd^III ([2]; A: 1 hour at 80° C.): 0%
conversion to 1,5-cz-[Ln(Lig)] from 1,5-cz-Lig, Pr^III ([2]; A: 1 hour at 80° C.): 0%
conversion to 1,5-cz-[Ln(Lig)] from 1,5-cz-Lig, Sm^III ([2]; A: 1 hour at 80° C.): 0%
conversion to 1,5-cz-[Ln(Lig)] from 1,5-cz-Lig, Tb^III ([2]; A: 1 hour at 80° C.): 0%
conversion to 1,5-cz-[Ln(Lig)] from 1,5-cz-Lig, Tm^III ([2]; A: 1 hour at 80° C.): 0%
conversion to 1,5-cz-[Ln(Lig)] from 1,5-cz-Lig, Yb^III ([2]; A: 1 hour at 80° C.): 0%
conversion to 1,5-cz-[Ln(Lig)] from 1,5-cz-Lig, Ce^III ([2]; B: 1 week at 80° C.): 0%
conversion to 1,5-cz-[Ln(Lig)] from 1,5-cz-Lig, Dy^III ([2]; B: 1 week at 80° C.): 0%
conversion to 1,5-cz-[Ln(Lig)] from 1,5-cz-Lig, Er^III ([2]; B: 1 week at 80° C.): 0%
conversion to 1,5-cz-[Ln(Lig)] from 1,5-cz-Lig, Eu^III ([2]; B: 1 week at 80° C.): 0%
conversion to 1,5-cz-[Ln(Lig)] from 1,5-cz-Lig, Gd^III ([2]; B: 1 week at 80° C.): 0%
conversion to 1,5-cz-[Ln(Lig)] from 1,5-cz-Lig, Ho^III ([2]; B: 1 week at 80° C.): 0%
conversion to 1,5-cz-[Ln(Lig)] from 1,5-cz-Lig, La^III ([2]; B: 1 week at 80° C.): 0%
conversion to 1,5-cz-[Ln(Lig)] from 1,5-cz-Lig, Lu^III ([2]; B: 1 week at 80° C.): 0%
conversion to 1,5-cz-[Ln(Lig)] from 1,5-cz-Lig, Nd^III ([2]; B: 1 week at 80° C.): 0%
conversion to 1,5-cz-[Ln(Lig)] from 1,5-cz-Lig, Pr^III ([2]; B: 1 week at 80° C.): 0%
conversion to 1,5-cz-[Ln(Lig)] from 1,5-cz-Lig, Sm^III ([2]; B: 1 week at 80° C.): 0%
conversion to 1,5-cz-[Ln(Lig)] from 1,5-cz-Lig, Tb^III ([2]; B: 1 week at 80° C.): 0%
conversion to 1,5-cz-[Ln(Lig)] from 1,5-cz-Lig, Tm^III ([2]; B: 1 week at 80° C.): 0%
conversion to 1,5-cz-[Ln(Lig)] from 1,5-cz-Lig, Yb^III ([2]; B: 1 week at 80° C.): 0%
conversion to 1,5-cz-[Ln(Lig)] from 1,5-cz-Lig, Gd^III ([2]; C: ~6 months at 80° C.): 0%
conversion to 1,5-cz-[Ln(Lig)] from 1,5-cz-Lig, Lu^III ([2]; C: ~6 months at 80° C.): 0%
conversion to 1,5-cz-[Ln(Lig)] from 1,5-cz-Lig, Cu^II ([3]; A: 1 min at RT): 43%
conversion to 1,5-cz-[Ln(Lig)] from 1,5-cz-Lig, Pb^II ([3]; A: 1 min at RT): 98%
conversion to 1,5-cz-[Ln(Lig)] from 1,5-cz-Lig, Ca^II ([3]; B: 1 hour at RT): 0%
conversion to 1,5-cz-[Ln(Lig)] from 1,5-cz-Lig, Cd^II ([3]; B: 1 hour at RT): 58%
conversion to 1,5-cz-[Ln(Lig)] from 1,5-cz-Lig, Cu^II ([3]; B: 1 hour at RT): 47%
conversion to 1,5-cz-[Ln(Lig)] from 1,5-cz-Lig, Ni^II ([3]; B: 1 hour at RT): 0%
conversion to 1,5-cz-[Ln(Lig)] from 1,5-cz-Lig, Pb^II ([3]; B: 1 hour at RT): 99%
conversion to 1,5-cz-[Ln(Lig)] from 1,5-cz-Lig, Zn^II ([3]; B: 1 hour at RT): 59%
conversion to 1,5-cz-[Ln(Lig)] from 1,5-cz-Lig, Bi^III ([3]; B: 1 hour at RT): 2%
conversion to 1,5-cz-[Ln(Lig)] from 1,5-cz-Lig, Ca^II ([3]; C: 1 hour at 80° C.): 23%
conversion to 1,5-cz-[Ln(Lig)] from 1,5-cz-Lig, Cd^II ([3]; C: 1 hour at 80° C.): 98%
conversion to 1,5-cz-[Ln(Lig)] from 1,5-cz-Lig, Cu^II ([3]; C: 1 hour at 80° C.): 49%
conversion to 1,5-cz-[Ln(Lig)] from 1,5-cz-Lig, Ni^II ([3]; C: 1 hour at 80° C.): 9%
conversion to 1,5-cz-[Ln(Lig)] from 1,5-cz-Lig, Pb^II ([3]; C: 1 hour at 80° C.): 98%
conversion to 1,5-cz-[Ln(Lig)] from 1,5-cz-Lig, Zn^II ([3]; C: 1 hour at 80° C.): 91%
conversion to 1,5-cz-[Ln(Lig)] from 1,5-cz-Lig, Bi^III ([3]; C: 1 hour at 80° C.): 96%
conversion to 1,5-cz-[Ln(Lig)] from 1,5-cz-Lig, Ba^II ([3]; D: 1 week at 80° C.): 0%
conversion to 1,5-cz-[Ln(Lig)] from 1,5-cz-Lig, Ca^II ([3]; D: 1 week at 80° C.): 96%
conversion to 1,5-cz-[Ln(Lig)] from 1,5-cz-Lig, Cd^II ([3]; D: 1 week at 80° C.): 99%
conversion to 1,5-cz-[Ln(Lig)] from 1,5-cz-Lig, Cu^II ([3]; D: 1 week at 80° C.): 78%
conversion to 1,5-cz-[Ln(Lig)] from 1,5-cz-Lig, Ga^II ([3]; D: 1 week at 80° C.): 0%
conversion to 1,5-cz-[Ln(Lig)] from 1,5-cz-Lig, In^III ([3]; D: 1 week at 80° C.): 0%
conversion to 1,5-cz-[Ln(Lig)] from 1,5-cz-Lig, Ni^II ([3]; D: 1 week at 80° C.): 11%
conversion to 1,5-cz-[Ln(Lig)] from 1,5-cz-Lig, Pb^II ([3]; D: 1 week at 80° C.): 98%
conversion to 1,5-cz-[Ln(Lig)] from 1,5-cz-Lig, Sc^III ([3]; D: 1 week at 80° C.): 0%
conversion to 1,5-cz-[Ln(Lig)] from 1,5-cz-Lig, Sr^II ([3]; D: 1 week at 80° C.): 0%
conversion to 1,5-cz-[Ln(Lig)] from 1,5-cz-Lig, Y^III ([3]; D: 1 week at 80° C.): 0%
conversion to 1,5-cz-[Ln(Lig)] from 1,5-cz-Lig, Zn^II ([3]; D: 1 week at 80° C.): 99%
conversion to 1,5-cz-[Ln(Lig)] from 1,5-cz-Lig, Bi^III ([3]; D: 1 week at 80° C.): 90%
